Results published in ChEMBL document CHEMBL5325393, “A mini-review on synthesis and antiviral activity of natural product oxetanocin A derivatives” (Bioorg Med Chem, 2022).
Converted amounts (≈) assume the structure as drawn.

Columns and labels:
Cytomegalovirus = assay: Antiviral activity against CMV AD-169 infected in HEL cells assessed as reduction in virus plaque formation; type: functional, organism-based; details: Human betaherpesvirus 5, AD-169, HEL
[1] = system: Human immunodeficiency virus; assay: Antiviral activity against HIV infected in human MT4 cells by plaque reduction assay; type: functional, organism-based; details: Human immunodeficiency virus 1, MT4
[2] = system: Human immunodeficiency virus; assay: Antiviral activity against HIV assessed as inhibition of viral growth; type: functional, organism-based; details: Human immunodeficiency virus 1
[3] = system: Human immunodeficiency virus 1; assay: Antiviral activity against HIV-1 assessed as inhibition of viral replication; type: functional, organism-based
Human alphaherpesvirus 2 [4] = assay: Antiviral activity against HSV-2 assessed as inhibition of viral growth; type: functional, organism-based
Human alphaherpesvirus 1 [5] = assay: Antiviral activity against HSV-1 assessed as inhibition of viral growth; type: functional, organism-based
HUVEC [6] = assay: Angiogenic activity against HUVEC cells assessed as relative area of tube formation at 100 uM incubated for 96 hrs by Alexa fluor 488 staining based analysis; type: functional, Homo sapiens
[7] = system: Human immunodeficiency virus 1; assay: Antiviral activity against HIV-1 III B infected in PBMC assessed as inhibition of viral growth; type: functional, organism-based; details: Human immunodeficiency virus 1, III B
[8] = system: Human immunodeficiency virus 2; assay: Antiviral activity against HIV-2 D194 infected in PBMC assessed as inhibition of viral growth; type: functional, organism-based; details: Human immunodeficiency virus 2, D194, PBMC
[9] = system: Human immunodeficiency virus 1; assay: Antiviral activity against HIV-1 infected in human CEM cells assessed as inhibition of cytopathogenicity at 400 uM relative to control; type: functional; details: Human immunodeficiency virus 1, CCRF-CEM
CEM = assay: Inhibition of HIV reverse transcriptase in human CEM cells at 400 uM relative to control; type: cell-based; details: Human immunodeficiency virus
Human betaherpesvirus 5 = assay: Antiviral activity against HCMV AD169 infected in HEL cells assessed as reduction in virus induced cytopathogenicity by plaque reduction assay; type: functional, organism-based; details: Human betaherpesvirus 5, AD169, HEL
Human alphaherpesvirus 1 [10] = assay: Antiviral activity against HSV-1 KOS infected in African green monkey Vero cells assessed as reduction in virus induced cytopathogenicity by plaque reduction assay; type: functional, organism-based; details: Human alphaherpesvirus 1, KOS
[11] = system: Human immunodeficiency virus 1; assay: Antiviral activity against HIV-1 HTLV-IIIB infected in human MT4 cells assessed as reduction in virus induced cytopathogenicity by immunofluorescence assay; type: functional, organism-based; details: Human immunodeficiency virus 1, HTLV-IIIB
Human alphaherpesvirus 1 [12] = assay: Potency index, ratio of acyclovir EC50 to test compound EC50 for antiviral activity against HSV-1 KOS infected in African green monkey Vero cells assessed as reduction in virus induced cytopathogenicity by plaque reduction assay; type: functional
Human alphaherpesvirus 2 [13] = assay: Antiviral activity against HSV-2 186 infected in African green monkey Vero cells assessed as reduction in virus induced cytopathogenicity by plaque reduction assay; type: functional, organism-based; details: Human alphaherpesvirus 2, 186, Vero
Hepatitis B virus = assay: Antiviral activity against HBV infected in human HepG2.2.15 cells assessed as reduction in virus induced cytopathogenicity by Southern blot analysis; type: functional, organism-based
Human alphaherpesvirus 2 [14] = assay: Potency index, ratio of acyclovir EC50 to test compound EC50 for antiviral activity against HSV-2 186 infected in African green monkey Vero cells assessed as reduction in virus induced cytopathogenicity by plaque reduction assay; type: functional
HUVEC [15] = assay: Angiogenic activity against HUVEC cells assessed as relative area of tube formation at 100 uM incubated for 10 days by tube formation assay; type: functional, Homo sapiens; details: time 10 day
[16] = system: Human immunodeficiency virus; assay: Antiviral activity against HIV RF assessed as inhibition of viral growth; type: functional, organism-based; details: Human immunodeficiency virus 1, RF
[17] = system: Human immunodeficiency virus 1; assay: Antiviral activity against HIV-1 HTLV-IIIB infected in human MT4 cells assessed as inhibition of viral replication; type: functional, organism-based; details: Human immunodeficiency virus 1, HTLV-IIIB
[18] = Antiproliferative against human HFF cells assessed as inhibition of cell growth by neutral red uptake analysis; type: toxicity, cell-based
Human alphaherpesvirus 1 [19] = assay: Antiviral activity against thymidine kinase positive HSV-1 E-377 infected in HFF cells assessed as reduction in viral replication incubated for 3 days by crystal violet staining based microplate reader analysis; type: functional, organism-based; details: Human alphaherpesvirus 1, E-377, HFF, 72 h
Human alphaherpesvirus 1 [20] = assay: Antiviral activity against thymidine kinase positive HSV-1 SC-16 infected in HFF cells assessed as reduction in viral replication incubated for 3 days by crystal violet staining based microplate reader analysis; type: functional, organism-based; details: Human alphaherpesvirus 1, SC-16, HFF, 72 h
Human alphaherpesvirus 3 [21] = assay: Antiviral activity against thymidine kinase positive VZV OKA infected in HFF cells assessed as reduction in viral replication incubated for 10 days by crystal violet staining based microplate reader analysis; type: functional, organism-based; details: Human alphaherpesvirus 3, OKA, 240 h
Human alphaherpesvirus 3 [22] = assay: Antiviral activity against thymidine kinase positive VZV V8907 infected in HFF cells assessed as reduction in viral replication incubated for 10 days by crystal violet staining based microplate reader analysis; type: functional, organism-based; details: Human alphaherpesvirus 3, V8907, HFF, 240 h
Human alphaherpesvirus 1 [23] = assay: Antiviral activity against thymidine kinase positive HSV-1 123 infected in HFF cells assessed as reduction in viral replication incubated for 3 days by crystal violet staining based microplate reader analysis; type: functional, organism-based; details: Human alphaherpesvirus 1, 123, HFF, 72 h
Human alphaherpesvirus 3 [24] = assay: Antiviral activity against thymidine kinase positive VZV V8602/5-1-1 infected in HFF cells assessed as reduction in viral replication incubated for 10 days by crystal violet staining based microplate reader analysis; type: functional, organism-based; details: Human alphaherpesvirus 3, V8602/5-1-1, HFF, 240 h
Human alphaherpesvirus 3 [25] = assay: Antiviral activity against thymidine kinase positive VZV DKG infected in HFF cells assessed as reduction in viral replication incubated for 10 days by crystal violet staining based microplate reader analysis; type: functional, organism-based; details: Human alphaherpesvirus 3, DKG, 240 h
Human alphaherpesvirus 1 [26] = assay: (§1) Antiviral activity against lethal intracerebral HSV-1 123 infected in po dosed Swiss mouse model assessed as increase in animal survival administered as single double strength loading dose at 7 hrs post-inoculation and single strength dose at 23, 31, 47, 55, 71, 79 hrs post-inoculation and monitored for 21 days; type: functional; details: time 21 day
Human alphaherpesvirus 1 [27] = assay: as §1, with “systemic” for “intracerebral”; type: functional; details: time 21 day
Human alphaherpesvirus 3 [28] = assay: Antiviral activity against thymidine kinase positive VZV Ellen infected in HFF cells assessed as reduction in viral replication incubated for 10 days by crystal violet staining based microplate reader analysis; type: functional, organism-based; details: Human alphaherpesvirus 3, Ellen, 240 h

Question: With `C=C1C[C@@H](n2cnc3c(=O)[nH]c(N)nc32)[C@@H]1CO` as the molecule, how does the EC50 (Cytomegalovirus) read?
Answer: 70 µg/mL (≈ 283 µM)

Question: With `Nc1ncnc2c1ncn2[C@@H]1O[C@H](CO)[C@@H]1O` as the molecule, how does the IC50 [1] read?
Answer: 0.54 µg/mL (≈ 2.28 µM)

Question: With `Nc1nc2c(ncn2[C@H]2C[C@@H](CO)C2)c(=O)[nH]1` as the molecule, how does the EC50 [2] read?
Answer: 8000 nM

Question: Which EC50 [3] does the source give for `Nc1ncnc2c1ncn2N1C[C@H](CO)[C@H]1CO` here?
Answer: 0.37 µg/mL (≈ 1.48 µM)

Question: And the EC50 (Human alphaherpesvirus 2 [4])?
Answer: 34.9 µg/mL (≈ 139 µM)

Question: What about the EC50 (Human alphaherpesvirus 1 [5]) of the same molecule?
Answer: 33.2 µg/mL (≈ 133 µM)

Question: Which Ratio (HUVEC [6]) does the source give for `Nc1nc(I)nc2c1ncn2[C@@H]1C[C@H](CO)[C@H]1CO` here?
Answer: 2.01

Question: Which IC50 [7] does the source give for `O=c1[nH]cnc2c1ncn2[C@H]1C[C@@](F)(CO)C1` here?
Answer: 95000 nM

Question: And the IC50 [8]?
Answer: 46000 nM

Question: With `Nc1nc2c(ncn2[C@H]2C[C@@](O)(CO)C2)c(=O)[nH]1` as the molecule, how does the inhibition at 400 µM [9] read?
Answer: 59%

Question: And the inhibition (CEM)?
Answer: < 50%

Question: With `Nc1nc(Br)nc2c1ncn2[C@@H]1C[C@H](CO)[C@H]1CO` as the molecule, how does the Ratio (HUVEC [6]) read?
Answer: 2.1

Question: For `Nc1ncnc2c1ncn2[C@@H]1C[C@](F)(CO)[C@H]1CO`, which EC50 (Human betaherpesvirus 5) is on record?
Answer: 0.18 µg/mL (≈ 0.673 µM)

Question: And the EC50 (Human alphaherpesvirus 1 [10])?
Answer: 2.72 µg/mL (≈ 10.2 µM)

Question: What about the EC50 [11] of the same molecule?
Answer: 3.73 µg/mL (≈ 14 µM)

Question: And the “Ratio EC50” value (Human alphaherpesvirus 1 [12])?
Answer: 7

Question: What about the EC50 (Human alphaherpesvirus 2 [13]) of the same molecule?
Answer: 1.33 µg/mL (≈ 4.98 µM)

Question: What about the EC50 (Hepatitis B virus) of the same molecule?
Answer: 0.41 µg/mL (≈ 1.53 µM)

Question: And the “Ratio EC50” value (Human alphaherpesvirus 2 [14])?
Answer: 7

Question: Which Ratio (HUVEC [15]) does the source give for `Nc1nc(Cl)nc2c1ncn2[C@H]1C[C@H](CO)C1` here?
Answer: 3.32

Question: Which Ratio (HUVEC [15]) does the source give for `COc1nc(N)c2ncn([C@@H]3C[C@H](CO)[C@H]3CO)c2n1` here?
Answer: 1.87

Question: Which EC50 [3] does the source give for `Cc1cn([C@H]2C[C@H](N=[N+]=[N-])[C@@H](CO)O2)c(=O)[nH]c1=O` [ZIDOVUDINE] here?
Answer: 0.003 µg/mL (≈ 0.0112 µM)

Question: Which EC50 [2] does the source give for `Nc1ncnc2c1ncn2[C@H]1C[C@@H](CO)C1` here?
Answer: 800 nM

Question: Which results are given for `Nc1nc2c(ncn2N2C[C@H](CO)[C@H]2CO)c(=O)[nH]1`?
Answer: EC50 [3]: 0.46 µg/mL (≈ 1.73 µM); EC50 (Human alphaherpesvirus 2 [4]): 6.32 µg/mL (≈ 23.7 µM); EC50 (Human alphaherpesvirus 1 [5]): 5.36 µg/mL (≈ 20.1 µM)

Question: For `Nc1nc(Cl)nc2c1ncn2[C@@H]1C[C@@H](CO)[C@H]1CO`, which Ratio (HUVEC [15]) is on record?
Answer: 3.43

Question: Which IC50 [16] does the source give for `[N-]=[N+]=N[C@H]1[C@H](n2cnc3c(N)ncnc32)O[C@@H]1CO` here?
Answer: 6 µg/mL (≈ 22.9 µM)

Question: With `Nc1nc(Cl)nc2c1ncn2[C@@H]1O[C@H](CO)[C@H]1CO` as the molecule, how does the IC50 [17] read?
Answer: 440 nM

Question: With `Cc1cn([C@@H]2O[C@H](CO)[C@H]2CO)c(=O)[nH]c1=O` as the molecule, how does the IC50 [18] read?
Answer: > 100000 nM

Question: And the EC50 (Human alphaherpesvirus 1 [19])?
Answer: 12 nM

Question: What about the EC50 (Human alphaherpesvirus 1 [20]) of the same molecule?
Answer: 12 nM

Question: And the EC50 (Human alphaherpesvirus 3 [21])?
Answer: 10 nM

Question: And the EC50 (Human alphaherpesvirus 3 [22])?
Answer: 10 nM

Question: And the EC50 (Human alphaherpesvirus 1 [23])?
Answer: 12 nM

Question: What about the EC50 (Human alphaherpesvirus 3 [24]) of the same molecule?
Answer: 10 nM

Question: What about the EC50 (Human alphaherpesvirus 3 [25]) of the same molecule?
Answer: 10 nM

Question: What about the ED50 (Human alphaherpesvirus 1 [26]) of the same molecule?
Answer: 211 mg/kg.day

Question: And the ED50 (Human alphaherpesvirus 1 [27])?
Answer: 142 mg/kg.day

Question: And the EC50 (Human alphaherpesvirus 3 [28])?
Answer: 10 nM
